{"source": "ChEMBL document CHEMBL1201862", "about": "“PubChem BioAssay data set” (2004)", "format_in_all_cases": "functional", "key": {"[1]": {"biological_target": "Hepatocyte growth factor receptor (Homo sapiens, UniProt P08581)"}, "[2]": {"biological_target": "Tyrosine-protein kinase ABL1 (Homo sapiens, UniProt P00519)"}, "[3]": {"biological_target": "BDNF/NT-3 growth factors receptor (Homo sapiens, UniProt Q16620)"}, "[4]": {"biological_target": "Serine/threonine-protein kinase 17A (Homo sapiens, UniProt Q9UEE5)"}, "[5]": {"biological_target": "Serine/threonine-protein kinase Nek2 (Homo sapiens, UniProt P51955)"}, "[6]": {"biological_target": "Tyrosine-protein kinase receptor TYRO3 (Homo sapiens, UniProt Q06418)", "sequence (Q06418 whole entry)": "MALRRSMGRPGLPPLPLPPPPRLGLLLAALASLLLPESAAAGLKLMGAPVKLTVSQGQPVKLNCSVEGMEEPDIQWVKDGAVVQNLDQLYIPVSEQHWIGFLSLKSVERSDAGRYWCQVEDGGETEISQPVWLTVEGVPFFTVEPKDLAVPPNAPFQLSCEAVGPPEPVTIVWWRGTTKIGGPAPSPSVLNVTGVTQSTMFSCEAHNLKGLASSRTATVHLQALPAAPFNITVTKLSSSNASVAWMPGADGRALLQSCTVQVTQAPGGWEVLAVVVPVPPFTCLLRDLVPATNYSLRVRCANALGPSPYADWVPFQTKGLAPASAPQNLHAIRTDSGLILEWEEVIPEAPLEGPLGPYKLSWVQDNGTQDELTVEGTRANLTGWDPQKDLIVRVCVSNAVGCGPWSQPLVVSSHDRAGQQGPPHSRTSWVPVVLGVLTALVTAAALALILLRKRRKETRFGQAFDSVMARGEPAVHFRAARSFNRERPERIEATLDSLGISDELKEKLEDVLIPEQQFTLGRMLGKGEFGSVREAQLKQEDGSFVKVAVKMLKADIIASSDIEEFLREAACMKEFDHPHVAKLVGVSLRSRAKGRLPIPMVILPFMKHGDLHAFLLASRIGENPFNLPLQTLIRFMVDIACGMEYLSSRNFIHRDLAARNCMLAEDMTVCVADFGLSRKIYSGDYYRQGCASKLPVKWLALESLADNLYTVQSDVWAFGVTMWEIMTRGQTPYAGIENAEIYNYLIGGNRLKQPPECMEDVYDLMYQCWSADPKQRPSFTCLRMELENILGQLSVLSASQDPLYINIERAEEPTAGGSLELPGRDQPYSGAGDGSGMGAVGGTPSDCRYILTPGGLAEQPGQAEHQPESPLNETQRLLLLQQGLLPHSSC"}, "[7]": {"biological_target": "T1, Aurora kinase A (Homo sapiens, UniProt O14965)", "T1 sequence (O14965 whole entry)": "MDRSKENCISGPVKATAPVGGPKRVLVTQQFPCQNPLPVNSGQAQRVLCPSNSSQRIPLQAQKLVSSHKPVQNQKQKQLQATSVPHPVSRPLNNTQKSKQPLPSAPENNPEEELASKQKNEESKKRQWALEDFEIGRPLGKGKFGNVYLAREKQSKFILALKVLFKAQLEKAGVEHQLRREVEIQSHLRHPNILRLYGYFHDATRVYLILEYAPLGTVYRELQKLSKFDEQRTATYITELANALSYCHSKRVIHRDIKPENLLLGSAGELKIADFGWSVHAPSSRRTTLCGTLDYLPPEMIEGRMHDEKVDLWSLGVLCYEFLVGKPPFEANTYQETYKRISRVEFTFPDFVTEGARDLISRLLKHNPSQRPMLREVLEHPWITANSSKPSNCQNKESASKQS"}, "[8]": {"biological_target": "Fibroblast growth factor receptor 1 (Homo sapiens, UniProt P11362)"}, "[9]": {"biological_target": "Dual specificity mitogen-activated protein kinase kinase 2 (Homo sapiens, UniProt P36507)", "experiment": "Navigating the Kinome. Panel member name: MAP2K2"}, "[10]": {"biological_target": "T2, Tyrosine-protein kinase JAK3 (Homo sapiens, UniProt P52333)", "T2 sequence (P52333 whole entry)": "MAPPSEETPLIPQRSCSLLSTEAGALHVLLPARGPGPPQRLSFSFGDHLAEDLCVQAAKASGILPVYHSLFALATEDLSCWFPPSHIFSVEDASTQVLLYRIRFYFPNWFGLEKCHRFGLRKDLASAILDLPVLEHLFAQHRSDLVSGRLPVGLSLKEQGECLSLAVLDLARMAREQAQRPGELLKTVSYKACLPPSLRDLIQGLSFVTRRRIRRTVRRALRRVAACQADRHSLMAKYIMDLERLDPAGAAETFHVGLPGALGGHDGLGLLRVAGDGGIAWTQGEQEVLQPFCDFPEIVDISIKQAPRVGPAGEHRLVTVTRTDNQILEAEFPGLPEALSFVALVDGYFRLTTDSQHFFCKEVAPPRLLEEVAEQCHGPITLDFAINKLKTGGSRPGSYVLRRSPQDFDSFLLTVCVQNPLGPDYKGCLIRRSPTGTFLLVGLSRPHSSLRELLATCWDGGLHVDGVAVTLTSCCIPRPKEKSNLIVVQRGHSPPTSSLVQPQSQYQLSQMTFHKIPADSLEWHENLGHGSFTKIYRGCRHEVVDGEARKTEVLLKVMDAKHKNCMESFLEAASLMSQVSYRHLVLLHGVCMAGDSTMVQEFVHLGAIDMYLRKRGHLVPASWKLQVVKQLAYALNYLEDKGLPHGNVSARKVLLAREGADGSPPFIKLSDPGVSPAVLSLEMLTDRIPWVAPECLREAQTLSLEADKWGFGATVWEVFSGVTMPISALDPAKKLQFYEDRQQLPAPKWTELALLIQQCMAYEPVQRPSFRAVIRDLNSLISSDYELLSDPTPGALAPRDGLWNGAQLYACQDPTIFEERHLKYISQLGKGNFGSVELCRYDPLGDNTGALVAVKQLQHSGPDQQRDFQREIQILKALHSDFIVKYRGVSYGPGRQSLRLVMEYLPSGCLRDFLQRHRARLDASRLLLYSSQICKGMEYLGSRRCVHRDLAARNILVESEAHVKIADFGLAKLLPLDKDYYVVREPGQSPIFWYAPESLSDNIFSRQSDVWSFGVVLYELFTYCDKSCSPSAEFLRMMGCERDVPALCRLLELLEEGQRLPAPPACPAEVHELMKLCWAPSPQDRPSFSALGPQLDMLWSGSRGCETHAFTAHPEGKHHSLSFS"}, "[11]": {"biological_target": "LIM domain kinase 1 (Homo sapiens, UniProt P53667)", "sequence (P53667 whole entry, the tested form may be a part)": "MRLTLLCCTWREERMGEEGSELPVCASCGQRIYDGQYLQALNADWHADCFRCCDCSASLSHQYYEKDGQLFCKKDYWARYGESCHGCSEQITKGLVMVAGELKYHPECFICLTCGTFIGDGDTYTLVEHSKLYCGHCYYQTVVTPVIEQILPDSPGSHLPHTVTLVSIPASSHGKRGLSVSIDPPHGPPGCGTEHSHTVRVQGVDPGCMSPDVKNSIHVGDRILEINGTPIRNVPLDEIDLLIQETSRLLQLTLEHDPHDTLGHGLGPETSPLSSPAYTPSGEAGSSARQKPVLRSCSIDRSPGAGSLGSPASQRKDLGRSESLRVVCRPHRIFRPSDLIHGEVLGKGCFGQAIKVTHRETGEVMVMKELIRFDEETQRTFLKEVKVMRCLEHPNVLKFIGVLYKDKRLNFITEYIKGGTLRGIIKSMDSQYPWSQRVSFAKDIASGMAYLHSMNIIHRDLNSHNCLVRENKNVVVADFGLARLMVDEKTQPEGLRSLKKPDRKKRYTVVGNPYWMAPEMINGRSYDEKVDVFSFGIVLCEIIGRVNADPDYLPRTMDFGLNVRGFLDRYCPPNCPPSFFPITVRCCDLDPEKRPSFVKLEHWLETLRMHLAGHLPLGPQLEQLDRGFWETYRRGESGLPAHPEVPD", "experiment": "Navigating the Kinome. Panel member name: LIMK1"}, "[12]": {"biological_target": "Serine/threonine-protein kinase TBK1 (Homo sapiens, UniProt Q9UHD2)", "experiment": "Navigating the Kinome. Panel member name: TBK1"}, "[13]": {"biological_target": "Focal adhesion kinase 1 (Homo sapiens, UniProt Q05397)"}, "[14]": {"biological_target": "Leukocyte tyrosine kinase receptor (Homo sapiens, UniProt P29376)", "experiment": "Navigating the Kinome. Panel member name: LTK"}, "[15]": {"biological_target": "Receptor-type tyrosine-protein kinase FLT3 (Homo sapiens, UniProt P36888)"}, "[16]": {"biological_target": "Maternal embryonic leucine zipper kinase (Homo sapiens, UniProt Q14680)", "sequence (Q14680 whole entry)": "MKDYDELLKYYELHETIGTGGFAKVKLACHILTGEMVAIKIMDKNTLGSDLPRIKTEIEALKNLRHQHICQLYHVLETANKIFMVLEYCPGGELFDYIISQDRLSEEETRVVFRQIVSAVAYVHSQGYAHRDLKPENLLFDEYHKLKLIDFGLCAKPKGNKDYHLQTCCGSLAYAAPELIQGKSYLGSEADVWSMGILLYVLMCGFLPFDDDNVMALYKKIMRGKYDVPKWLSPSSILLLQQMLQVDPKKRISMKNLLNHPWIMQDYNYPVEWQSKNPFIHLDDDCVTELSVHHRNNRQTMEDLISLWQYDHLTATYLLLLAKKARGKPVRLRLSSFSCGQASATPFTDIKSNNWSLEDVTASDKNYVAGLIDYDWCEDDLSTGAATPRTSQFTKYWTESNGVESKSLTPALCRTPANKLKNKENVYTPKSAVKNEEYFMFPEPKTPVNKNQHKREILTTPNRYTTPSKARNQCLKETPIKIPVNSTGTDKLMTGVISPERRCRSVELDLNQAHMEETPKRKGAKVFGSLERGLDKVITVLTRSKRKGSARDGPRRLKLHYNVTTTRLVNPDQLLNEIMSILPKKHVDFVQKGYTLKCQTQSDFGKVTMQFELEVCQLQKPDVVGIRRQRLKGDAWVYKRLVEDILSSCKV"}, "[17]": {"biological_target": "Vascular endothelial growth factor receptor 2 (Homo sapiens, UniProt P35968)"}, "[18]": {"biological_target": "Insulin-like growth factor 1 receptor (Homo sapiens, UniProt P08069)", "sequence (P08069 31-736 limits assumed)": "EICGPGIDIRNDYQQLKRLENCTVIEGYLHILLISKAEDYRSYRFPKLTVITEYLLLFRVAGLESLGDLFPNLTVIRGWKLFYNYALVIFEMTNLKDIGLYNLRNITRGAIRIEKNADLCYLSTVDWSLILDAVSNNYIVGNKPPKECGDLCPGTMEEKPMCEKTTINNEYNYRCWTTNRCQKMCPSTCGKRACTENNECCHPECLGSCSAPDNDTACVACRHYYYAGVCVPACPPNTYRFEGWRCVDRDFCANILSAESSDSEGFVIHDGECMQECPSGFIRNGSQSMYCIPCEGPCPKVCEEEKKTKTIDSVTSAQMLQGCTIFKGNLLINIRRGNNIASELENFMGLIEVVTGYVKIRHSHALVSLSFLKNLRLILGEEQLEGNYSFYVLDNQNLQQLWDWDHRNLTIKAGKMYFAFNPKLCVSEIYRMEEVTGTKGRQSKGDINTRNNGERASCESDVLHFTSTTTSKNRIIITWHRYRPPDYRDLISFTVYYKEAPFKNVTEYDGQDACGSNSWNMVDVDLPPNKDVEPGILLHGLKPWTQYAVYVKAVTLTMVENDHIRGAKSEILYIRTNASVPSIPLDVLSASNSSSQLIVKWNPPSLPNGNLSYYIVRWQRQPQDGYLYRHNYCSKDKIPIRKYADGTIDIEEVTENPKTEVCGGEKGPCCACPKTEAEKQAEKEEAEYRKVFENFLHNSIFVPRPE", "sequence (P08069 741-1367 limits assumed)": "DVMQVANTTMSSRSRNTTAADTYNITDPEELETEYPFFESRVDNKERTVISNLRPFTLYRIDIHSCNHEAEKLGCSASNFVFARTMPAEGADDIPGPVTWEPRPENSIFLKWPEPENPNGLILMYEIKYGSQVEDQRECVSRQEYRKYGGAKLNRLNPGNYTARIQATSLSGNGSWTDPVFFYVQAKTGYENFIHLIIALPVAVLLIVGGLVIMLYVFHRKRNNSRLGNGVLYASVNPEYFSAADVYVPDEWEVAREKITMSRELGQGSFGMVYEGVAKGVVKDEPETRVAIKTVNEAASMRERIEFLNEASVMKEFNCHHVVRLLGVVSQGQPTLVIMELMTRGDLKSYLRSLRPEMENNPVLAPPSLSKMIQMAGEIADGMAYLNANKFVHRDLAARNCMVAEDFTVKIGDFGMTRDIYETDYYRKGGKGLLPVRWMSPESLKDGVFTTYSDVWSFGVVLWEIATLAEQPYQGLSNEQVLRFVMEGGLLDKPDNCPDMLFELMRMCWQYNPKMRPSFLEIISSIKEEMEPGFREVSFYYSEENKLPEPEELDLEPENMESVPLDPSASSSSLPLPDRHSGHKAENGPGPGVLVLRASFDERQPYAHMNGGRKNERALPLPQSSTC", "experiment": "Navigating the Kinome. Panel member name: IGF1R"}, "[19]": {"biological_target": "Serine/threonine-protein kinase 3 (Homo sapiens, UniProt Q13188)"}, "[20]": {"biological_target": "Leucine-rich repeat serine/threonine-protein kinase 2 (Homo sapiens, UniProt Q5S007)"}, "[21]": {"biological_target": "Cyclin-dependent kinase 9 (Homo sapiens, UniProt P50750)"}, "[22]": {"biological_target": "Tyrosine-protein kinase SYK (Homo sapiens, UniProt P43405)"}, "[23]": {"biological_target": "Glycogen synthase kinase-3 alpha (Homo sapiens, UniProt P49840)", "sequence (P49840 whole entry)": "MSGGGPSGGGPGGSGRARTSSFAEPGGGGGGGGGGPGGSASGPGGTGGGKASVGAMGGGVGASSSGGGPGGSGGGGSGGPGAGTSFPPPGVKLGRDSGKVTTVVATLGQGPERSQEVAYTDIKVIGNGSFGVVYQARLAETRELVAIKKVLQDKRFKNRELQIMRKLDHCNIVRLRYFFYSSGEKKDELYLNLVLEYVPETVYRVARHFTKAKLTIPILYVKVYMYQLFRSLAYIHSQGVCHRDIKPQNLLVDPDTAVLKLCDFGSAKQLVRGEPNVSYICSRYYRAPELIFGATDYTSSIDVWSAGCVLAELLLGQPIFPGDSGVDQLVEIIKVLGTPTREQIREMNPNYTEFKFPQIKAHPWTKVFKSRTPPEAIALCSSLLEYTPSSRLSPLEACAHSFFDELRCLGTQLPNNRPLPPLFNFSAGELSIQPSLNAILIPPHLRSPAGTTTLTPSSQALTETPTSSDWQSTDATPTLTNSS"}, "[24]": {"biological_target": "Calcium/calmodulin-dependent protein kinase type II subunit delta (Homo sapiens, UniProt Q13557)"}, "[25]": {"biological_target": "Mitogen-activated protein kinase kinase kinase kinase 2 (Homo sapiens, UniProt Q12851)", "sequence (Q12851 whole entry)": "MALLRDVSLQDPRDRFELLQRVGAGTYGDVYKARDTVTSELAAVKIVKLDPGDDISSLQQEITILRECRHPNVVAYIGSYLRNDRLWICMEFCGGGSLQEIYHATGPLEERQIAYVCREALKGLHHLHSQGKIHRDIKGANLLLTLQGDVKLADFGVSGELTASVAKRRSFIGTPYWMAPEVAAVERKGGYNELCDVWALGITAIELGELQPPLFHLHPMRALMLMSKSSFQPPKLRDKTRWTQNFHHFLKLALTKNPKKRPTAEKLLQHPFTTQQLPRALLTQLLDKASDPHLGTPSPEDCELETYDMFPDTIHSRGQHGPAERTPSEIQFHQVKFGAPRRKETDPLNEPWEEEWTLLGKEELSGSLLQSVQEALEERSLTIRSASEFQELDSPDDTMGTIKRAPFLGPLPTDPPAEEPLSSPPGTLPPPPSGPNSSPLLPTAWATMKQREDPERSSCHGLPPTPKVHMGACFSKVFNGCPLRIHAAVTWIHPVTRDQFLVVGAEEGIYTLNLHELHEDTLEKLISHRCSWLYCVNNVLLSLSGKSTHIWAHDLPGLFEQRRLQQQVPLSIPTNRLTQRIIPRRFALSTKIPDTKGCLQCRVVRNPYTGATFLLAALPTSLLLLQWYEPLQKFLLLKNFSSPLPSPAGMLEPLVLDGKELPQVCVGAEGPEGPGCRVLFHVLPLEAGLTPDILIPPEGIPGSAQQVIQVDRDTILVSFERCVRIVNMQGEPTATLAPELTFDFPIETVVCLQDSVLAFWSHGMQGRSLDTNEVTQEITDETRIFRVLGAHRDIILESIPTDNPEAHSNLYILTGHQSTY"}, "[26]": {"biological_target": "Glycogen synthase kinase-3 beta (Homo sapiens, UniProt P49841)"}}, "note": "Calls of active or inactive are those of the source."}
{"compound": "O=C(Nc1n[nH]c2ccc(-c3cn(Cc4ccccc4)nn3)cc12)c1cc(F)ccc1F", "values": [{"measurement": "Ki", "setting": "[1]", "value": "> 2.51 µM (inactive)"}, {"measurement": "Ki", "setting": "[2]", "value": "> 2.51 µM (inactive)"}, {"measurement": "Ki", "setting": "[3]", "value": "> 3.98 µM (inactive)"}, {"measurement": "Ki", "setting": "[4]", "value": "200 nM (active)"}, {"measurement": "Ki", "setting": "[5]", "value": "> 3.16 µM (inactive)"}, {"measurement": "Ki", "setting": "[6]", "value": "> 3.16 µM (inactive)"}, {"measurement": "Ki", "setting": "[7]", "value": "> 1.58 µM (inactive)"}, {"measurement": "Ki", "setting": "[8]", "value": "> 3.98 µM (inactive)"}, {"measurement": "Ki", "setting": "[9]", "value": "> 3.98 µM (inactive)"}, {"measurement": "Ki", "setting": "[10]", "value": "> 5.01 µM (inactive)"}, {"measurement": "Ki", "setting": "[11]", "value": "> 3.16 µM (inactive)"}, {"measurement": "Ki", "setting": "[12]", "value": "794 nM (active)"}, {"measurement": "Ki", "setting": "[13]", "value": "> 6.31 µM (inactive)"}, {"measurement": "Ki", "setting": "[14]", "value": "> 2.51 µM (inactive)"}, {"measurement": "Ki", "setting": "[15]", "value": "> 2 µM (inactive)"}, {"measurement": "Ki", "setting": "[16]", "value": "398 nM (active)"}, {"measurement": "Ki", "setting": "[17]", "value": "> 2.51 µM (inactive)"}, {"measurement": "Ki", "setting": "[18]", "value": "> 2.51 µM (inactive)"}, {"measurement": "Ki", "setting": "[19]", "value": "> 3.16 µM (inactive)"}, {"measurement": "Ki", "setting": "[20]", "value": "1.26 µM (active)"}, {"measurement": "Ki", "setting": "[21]", "value": "398 nM (active)"}, {"measurement": "Ki", "setting": "[22]", "value": "> 1.58 µM (inactive)"}, {"measurement": "Ki", "setting": "[23]", "value": "3.98 nM (active)"}, {"measurement": "Ki", "setting": "[24]", "value": "> 3.16 µM (inactive)"}, {"measurement": "Ki", "setting": "[25]", "value": "> 2.51 µM (inactive)"}, {"measurement": "Ki", "setting": "[26]", "value": "2 nM (active)"}]}
{"compound": "CS(=O)(=O)Nc1ccc(Nc2ccc3[nH]nc(N)c3c2)cc1", "values": [{"measurement": "Ki", "setting": "[10]", "value": "> 5.01 µM (inactive)"}, {"measurement": "Ki", "setting": "[11]", "value": "0.501 µM (active)"}, {"measurement": "Ki", "setting": "[13]", "value": "> 6.31 µM (inactive)"}]}
{"compound": "CS(=O)(=O)N(Cc1ccc2[nH]c(=O)c3cccn3c2c1)C1CC1", "values": [{"measurement": "Ki", "setting": "[1]", "value": "> 2.51 µM (inactive)"}, {"measurement": "Ki", "setting": "[2]", "value": "> 1.58 µM (inactive)"}, {"measurement": "Ki", "setting": "[3]", "value": "> 3.98 µM (inactive)"}, {"measurement": "Ki", "setting": "[4]", "value": "> 3980 nM (inactive)"}, {"measurement": "Ki", "setting": "[5]", "value": "> 1.58 µM (inactive)"}, {"measurement": "Ki", "setting": "[6]", "value": "> 1.58 µM (inactive)"}, {"measurement": "Ki", "setting": "[7]", "value": "> 0.794 µM (inactive)"}, {"measurement": "Ki", "setting": "[8]", "value": "> 3.98 µM (inactive)"}, {"measurement": "Ki", "setting": "[9]", "value": "> 3.98 µM (inactive)"}, {"measurement": "Ki", "setting": "[10]", "value": "> 2.51 µM (inactive)"}, {"measurement": "Ki", "setting": "[11]", "value": "> 3.16 µM (inactive)"}, {"measurement": "Ki", "setting": "[12]", "value": "> 3160 nM (inactive)"}, {"measurement": "Ki", "setting": "[14]", "value": "> 2.51 µM (inactive)"}, {"measurement": "Ki", "setting": "[15]", "value": "> 2.51 µM (inactive)"}, {"measurement": "Ki", "setting": "[16]", "value": "200 nM (active)"}, {"measurement": "Ki", "setting": "[17]", "value": "> 5.01 µM (inactive)"}, {"measurement": "Ki", "setting": "[18]", "value": "> 1.26 µM (inactive)"}, {"measurement": "Ki", "setting": "[19]", "value": "> 7.94 µM (inactive)"}, {"measurement": "Ki", "setting": "[20]", "value": "> 2.51 µM (inactive)"}, {"measurement": "Ki", "setting": "[21]", "value": "> 1580 nM (inactive)"}, {"measurement": "Ki", "setting": "[22]", "value": "0.316 µM (active)"}, {"measurement": "Ki", "setting": "[23]", "value": "> 2000 nM (inactive)"}, {"measurement": "Ki", "setting": "[24]", "value": "0.251 µM (active)"}, {"measurement": "Ki", "setting": "[25]", "value": "> 2 µM (inactive)"}, {"measurement": "Ki", "setting": "[26]", "value": "> 2000 nM (inactive)"}]}
